# Results: publication PMC9080521, “Molecular basis of rutin inhibition of protein disulfide isomerase (PDI) by combined in silico and experimental methods” (RSC Advances, 2018)
# How the values were obtained:
# full-length human PDI = full-length human PDI (Homo sapiens, UniProt P07237); test: Fluorescence-based direct binding assay; settings: protein 18 μM, excitation 430 nm, emission 530 nm, n=3, Standard Error 0.18 μM; read-out: IC50 (binding affinity, fluorescence)
# Experimental: (§1) 2. Binding affinity (IC50) of rutin to human or murine MBP-fused PDI proteins The MBP-fused PDI proteins (18 μМ) were incubated with a gradient of 10 rutin’s concentrations differed by 2- or 3-fold and 3 repetitions in 384-well black plate at room temperature for 30 min before measurements. The total assay volume was filled to 100 μL using the assay buffer (pH 7.4) contains 150 mM NaCl, 20 mM Tris, 1 mM EDTA, 1 mM β-ME and 5% glycerin. The fluorescence emission spectrum of the mixture were measured with the excitation at 430 nm and the emission at 530 nm at room temperature on a BioTek Synergy microplate reader with a sensitivity of 100. The data were analyzed by GraphPad Prism (Fig. S3).
# human MBP-PDI-b′x = target: T1, human MBP-PDI-b′x (Homo sapiens, UniProt P07237); test: Fluorescence-based direct binding assay; settings: protein 18 μM, excitation 430 nm, emission 530 nm, n=3, Standard Error 0.16 μM; read-out: IC50 (binding affinity, fluorescence)
# T1 construct: The human MBP-PDI-b′x (235–369); His-tag; made in house; host or cells: E. coli BL21 (DE3)
# Experimental: as §1
# human MBP-PDI-b′xa′ = target: T2, human MBP-PDI-b′xa′ (Homo sapiens, UniProt P07237); test: Fluorescence-based direct binding assay; settings: protein 18 μM, excitation 430 nm, emission 530 nm, n=3, Standard Error 0.14 μM; read-out: IC50 (binding affinity, fluorescence)
# T2 construct: MBP-PDI-b′xa′(235–479); His-tag; made in house; host or cells: E. coli BL21 (DE3)
# Experimental: as §1
# murine MBP-mPDI-b′x = target: T3, murine MBP-mPDI-b′x (Mus musculus, UniProt P09103); test: Fluorescence-based direct binding assay; settings: protein 18 μM, excitation 430 nm, emission 530 nm, n=3, Standard Error 0.15 μM; read-out: IC50 (binding affinity, fluorescence)
# T3 construct: The murine MBP-mPDI-b′x (236–369); His-tag; made in house; host or cells: E. coli BL21 (DE3)
# Experimental: as §1
# murine MBP-mPDI-b′xa′ = target: T4, murine MBP-mPDI-b′xa′ (Mus musculus, UniProt P09103); test: Fluorescence-based direct binding assay; settings: protein 18 μM, excitation 430 nm, emission 530 nm, n=3, Standard Error 0.15 μM; read-out: IC50 (binding affinity, fluorescence)
# T4 construct: MBP-mPDI-b′xa′ (236–477); His-tag; made in house; host or cells: E. coli BL21 (DE3)
# Experimental: as §1
# murine proteins (mPDI) = murine proteins (mPDI) (Mus musculus, UniProt P09103); test: Fluorescence-based direct binding assay, murine proteins as a group; settings: murine MBP-mPDI proteins, read-out: binding affinities of murine proteins (IC50)
# Experimental: as §1
# [1] = test system: MBP (MBP-PNGase, MBP-SpoIVB, MBP-MOC1); test: Fluorescence measurement with MBP-fusion control proteins; assay type: binding; settings: rutin 55 μM, MBP-fusion proteins 18 μM, excitation 430 nm
# Experimental: The relevant recombinant proteins were incubated with rutin in black 384-well plate at room temperature for 30 min before measurements. The concentrations of proteins were always kept at 18 μM and rutin was 55 μM. The total assay volume was filled to 100 μL using the protein buffer (pH 7.4). The fluorescence emission spectrum of every mixture were measured with the excitation at 430 nm and the emission at 460 nm at room temperature on a BioTek Synergy microplate reader with a sensitivity of 100 or 120 and measurements of per data with 100 times. […]
# presence of three different MBP-fusion proteins. The MBP-fusion proteins (MBP-PNGase protein (gray dash-dot line), MBP-SpoIVB protein (gray dash line) and MBP-MOC1 protein […]
# at 430 nm. Addition of rutin (55 μМ) to these proteins (MBP-PNGase in black solid line, MBP-SpoIVB in black dash line and MBP-MOC1 in black dot line) gave the signals almost identical to rutin itself (gray solid), which has a maximum fluorescence at 550 nm.
# (1 picture or pasted object on this page, not shown here)
# MBP-PDI-b′xa′ K328E = target: T5, MBP-PDI-b′xa′ K328E (Homo sapiens, UniProt P07237, K328E); test: Isothermal titration calorimetry (ITC); assay type: binding; settings: 25 °C
# T5 construct: MBP-PDI-b′xa′(235–479); His-tag; made in house; host or cells: E. coli BL21 (DE3)
# Experimental: Microcalorimetry titration of rutin to PDI recombinant and mutant proteins used a MicroCal ITC200 microcalorimeter (GE Healthcare). PDI recombinant proteins, which concentration ranges from 25 μM to 50 μM, were added into the cell (about 300 μL). Rutin, with concentration ranging from 500 μM to 1 mM, was injected from syringe to titrate the protein in cell (almost 40 μL). The experiment was performed at 25 °C with a equilibration time of 10 min, the reference power was set to 6.25 μcal s^−1. The process including 25 injections, each of 1, 2 or 2.5 μL rutin, in a duration of 3 s, and the interval time between two injections was 180 s. Data was analyzed with MicroCal Origin (MicroCal).
# Next, we resorted to a more sensitive method, isothermal titration calorimetry (ITC), to measure the direct binding. Due to the weak interaction, this method requires large amounts of high-purity protein samples (about 240 μL at 20–50 μM) to be titrated by the highest concentration of rutin (its water solubility of about 200 μM), so that the release of heat as a result of complex formation reached plateau phase rapidly and was enough to be measured. A problem we encountered is that the starting phase of the S-shape curve of heat measurement cannot always be resolved using the typical titration program of ITC, thus affecting the accuracy of dissociation constant (Kd) measurement from the S-shape ITC curve. This was due to the use of equal volume of small molecule titrant (∼2.5 μL) used in the typical ITC titration. Therefore, we established an optimized ITC titration scheme by using variable drop sizes, which started with small drops (1 μL at first ten times of injection) and ended with large drops (2 μL). We thus obtained S-shape ITC curves with well-defined upper and lower platforms (Fig. 5 and S6 ^†), which allowed the accurate measurements of Kd values.
# ERp5 = test system: ERp5; parameters: method as in PMID 22565308; settings: cited from earlier work
# T5 sequence (P07237 235-479 K328E): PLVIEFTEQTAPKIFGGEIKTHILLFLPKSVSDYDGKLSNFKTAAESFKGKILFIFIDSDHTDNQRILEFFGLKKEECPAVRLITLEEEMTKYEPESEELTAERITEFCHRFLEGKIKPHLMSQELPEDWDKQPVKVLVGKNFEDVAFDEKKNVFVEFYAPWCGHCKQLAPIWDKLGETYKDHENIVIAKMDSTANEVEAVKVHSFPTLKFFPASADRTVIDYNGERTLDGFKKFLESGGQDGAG
# Chain of murine proteins (mPDI) (P09103 236-369): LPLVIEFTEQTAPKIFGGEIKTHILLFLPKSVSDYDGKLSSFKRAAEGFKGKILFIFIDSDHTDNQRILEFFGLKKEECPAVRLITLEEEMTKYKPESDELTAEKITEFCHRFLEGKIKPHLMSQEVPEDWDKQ
# T3 sequence (P09103 236-369): as above
# Chain of full-length human PDI (P07237 18-508): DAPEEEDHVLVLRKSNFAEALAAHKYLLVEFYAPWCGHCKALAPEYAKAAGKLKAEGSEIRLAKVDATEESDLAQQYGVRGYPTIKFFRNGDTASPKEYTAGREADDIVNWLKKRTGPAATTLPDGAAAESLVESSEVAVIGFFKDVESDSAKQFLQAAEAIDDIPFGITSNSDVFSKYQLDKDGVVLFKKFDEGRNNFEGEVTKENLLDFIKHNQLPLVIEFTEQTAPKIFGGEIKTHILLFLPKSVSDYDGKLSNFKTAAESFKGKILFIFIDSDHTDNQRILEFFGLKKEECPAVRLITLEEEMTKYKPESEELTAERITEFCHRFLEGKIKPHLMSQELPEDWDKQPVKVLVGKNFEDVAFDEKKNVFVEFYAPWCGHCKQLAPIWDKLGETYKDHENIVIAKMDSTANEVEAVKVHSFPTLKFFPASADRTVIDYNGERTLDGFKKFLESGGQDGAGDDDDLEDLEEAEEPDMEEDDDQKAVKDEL
# T4 sequence (P09103 236-477): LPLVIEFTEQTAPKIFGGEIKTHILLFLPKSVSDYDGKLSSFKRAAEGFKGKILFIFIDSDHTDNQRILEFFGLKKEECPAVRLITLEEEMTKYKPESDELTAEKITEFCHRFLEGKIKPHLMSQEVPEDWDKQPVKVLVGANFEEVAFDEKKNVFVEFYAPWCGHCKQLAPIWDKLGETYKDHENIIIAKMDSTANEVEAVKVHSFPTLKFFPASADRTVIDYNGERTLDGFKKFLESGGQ
# T2 sequence (P07237 235-479): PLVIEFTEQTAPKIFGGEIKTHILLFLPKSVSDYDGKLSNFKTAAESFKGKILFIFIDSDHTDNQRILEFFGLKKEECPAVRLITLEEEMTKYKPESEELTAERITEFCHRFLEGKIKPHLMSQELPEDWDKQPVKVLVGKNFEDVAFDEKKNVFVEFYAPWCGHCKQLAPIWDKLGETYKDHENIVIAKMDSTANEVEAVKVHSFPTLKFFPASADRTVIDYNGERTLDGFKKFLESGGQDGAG
# T1 sequence (P07237 235-369): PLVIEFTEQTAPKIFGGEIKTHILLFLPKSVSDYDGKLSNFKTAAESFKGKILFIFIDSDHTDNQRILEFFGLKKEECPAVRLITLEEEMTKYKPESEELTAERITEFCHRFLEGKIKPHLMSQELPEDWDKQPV
structure (smiles),measurement,setting,value
C[C@@H]1O[C@@H](OC[C@H]2O[C@@H](Oc3c(-c4ccc(O)c(O)c4)oc4cc(O)cc(O)c4c3=O)[C@H](O)[C@@H](O)[C@@H]2O)[C@H](O)[C@H](O)[C@H]1O [rutin],IC50,full-length human PDI,31.1 µM
same,IC50,human MBP-PDI-b′x,18.7 µM
same,IC50,human MBP-PDI-b′xa′,28.8 µM
same,IC50,murine MBP-mPDI-b′x,15.7 µM
same,IC50,murine MBP-mPDI-b′xa′,26.3 µM
same,IC50,murine proteins (mPDI),~30 µM
same,binding to MBP,[1],does not bind
same,Kd,MBP-PDI-b′xa′ K328E,2290 ± 360 nM
same,N (stoichiometry ratio),MBP-PDI-b′xa′ K328E,0.86 ± 0.02
same,ΔG,MBP-PDI-b′xa′ K328E,-7.72 ± 0.31 kcal/mol
same,inhibition of ERp5,ERp5,did not inhibit
